# Measurements reported in patent US20260357306A1, “ONE-POT FERMENTATIVE PRODUCTION OF GLYCOLATE OR OTHER HYDROXYCARBOXYLIC ACIDS” (PHYCUS BIOTECHNOLOGIES INC., priority 2023, published 2026).
# T1: Pseudomonas putida aldehyde dehydrogenase ppuALDH, SEQ ID NO: 267 (Pseudomonas putida, UniProt Q88K06)
# T1 sequence (Q88K06 1-503): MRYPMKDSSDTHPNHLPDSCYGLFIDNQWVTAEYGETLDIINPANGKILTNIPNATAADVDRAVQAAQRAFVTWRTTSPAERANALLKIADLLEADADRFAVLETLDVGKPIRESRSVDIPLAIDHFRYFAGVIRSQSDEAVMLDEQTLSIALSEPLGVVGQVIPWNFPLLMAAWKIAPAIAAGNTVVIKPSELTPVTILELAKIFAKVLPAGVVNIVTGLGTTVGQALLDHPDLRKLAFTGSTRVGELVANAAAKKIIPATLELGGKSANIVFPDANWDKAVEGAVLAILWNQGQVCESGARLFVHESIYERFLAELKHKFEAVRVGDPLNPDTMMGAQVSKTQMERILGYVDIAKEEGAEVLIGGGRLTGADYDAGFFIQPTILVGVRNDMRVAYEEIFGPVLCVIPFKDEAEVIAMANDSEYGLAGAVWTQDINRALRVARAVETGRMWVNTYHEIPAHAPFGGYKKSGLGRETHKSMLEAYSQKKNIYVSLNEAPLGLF
# T2: Azotobacter vinelandii aldehyde dehydrogenase aviALDH, SEQ ID NO: 266 (Azotobacter vinelandii, UniProt C1DMY3)
# T2 sequence (C1DMY3 1-477): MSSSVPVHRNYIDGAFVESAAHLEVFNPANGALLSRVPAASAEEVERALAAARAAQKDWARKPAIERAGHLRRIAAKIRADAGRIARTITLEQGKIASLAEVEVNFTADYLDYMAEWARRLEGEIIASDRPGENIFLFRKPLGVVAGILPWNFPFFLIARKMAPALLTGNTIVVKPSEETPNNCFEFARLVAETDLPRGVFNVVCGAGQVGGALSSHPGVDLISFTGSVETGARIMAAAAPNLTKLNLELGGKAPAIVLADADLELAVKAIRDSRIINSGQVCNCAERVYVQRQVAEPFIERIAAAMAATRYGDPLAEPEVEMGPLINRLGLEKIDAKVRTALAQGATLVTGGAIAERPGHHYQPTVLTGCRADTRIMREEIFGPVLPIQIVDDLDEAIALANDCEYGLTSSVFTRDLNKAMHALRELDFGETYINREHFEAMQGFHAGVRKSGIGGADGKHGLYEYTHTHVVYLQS
# T3: Escherichia coli aldehyde dehydrogenase ecoALDH (aldA), SEQ ID NO: 265 (Escherichia coli, UniProt P25553)
# T3 construct: made in house; host or cells: E. coli BL21 (DE3)
# T3 sequence (P25553 1-479): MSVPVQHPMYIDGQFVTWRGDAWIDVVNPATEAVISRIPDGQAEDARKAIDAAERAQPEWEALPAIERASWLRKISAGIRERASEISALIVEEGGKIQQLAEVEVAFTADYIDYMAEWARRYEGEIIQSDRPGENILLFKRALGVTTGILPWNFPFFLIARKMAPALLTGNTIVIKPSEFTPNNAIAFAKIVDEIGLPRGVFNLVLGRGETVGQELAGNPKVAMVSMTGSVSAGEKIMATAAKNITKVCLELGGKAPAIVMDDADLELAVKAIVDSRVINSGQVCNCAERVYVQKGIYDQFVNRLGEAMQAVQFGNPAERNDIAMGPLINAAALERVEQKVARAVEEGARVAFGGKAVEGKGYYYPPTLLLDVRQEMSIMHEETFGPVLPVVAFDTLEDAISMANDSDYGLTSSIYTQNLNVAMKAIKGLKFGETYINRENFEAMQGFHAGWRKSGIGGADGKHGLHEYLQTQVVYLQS
# B1: Gluconobacter morbifer alcohol dehydrogenase gmoADH, SEQ ID NO: 207 (Gluconobacter morbifer G707) (protein)
# chain: MADTMQAAVVREFGKPLSIERVPVPEIRPNQILVKVETCGVCHTDLHAARGDWPTKPNPPFIPGHEGVGRIVALGSQVGDFVKVGDRVGVPWLYSACGHCEHCLGGWETLCEKQEDTGYSVNGCFAEYVAADPNYVAHLPENIDPLETSPVLCAGLTVYKGLKMTEARPGQWVAVSGIGGLGQMAVQYAVAMGMNVVAVDIDDGKLETAKKLGAVLTVNAKDRDPAKFVQQEIGGAHGALVTAVGRTAFAQAMGYARRGGTIVLNGLPPGDFPISIFDMVMNGTTVRGSIVGTRLDMIEALDFFARGKVKSVVTADKLENINTIFDNLQNGRLAGRTVLDFRS
# B2: Gluconobacter diazotrophicus alcohol dehydrogenase gdiADH, SEQ ID NO: 208 (Gluconacetobacter diazotrophicus PA1 5) (protein)
# chain: MRSADTILGGTSMTGKMKAAVVREFGKPLTIEELDIPSIRPDQILVKMDACGVCHTDLHAARGDWPVKPNPPFIPGHEGVGHVVSVGSAVKWVKLGDVVGVPWLYSACGHCEHCLGGWETLCASQDDTGYTVNGCFAEYVVADPSYVAHLPKTIDPLQVAPVLCAGLTVYKGLKMTDTKPGDWVAVSGVGGLGQMAVQYGVAMGMNVIAVDIDDEKLATAKALGAALTVNARATDPAPFIQSQVGGAHGALVTAVSRSAFSQAMGFARRGGTIVLNGLPPGEFPISIFDMVMAGTTVRGSIVGTRLDMIEAVSFFADGKVKTVIEPDRLENINQIFTDLEEGKIQGRKVLDFRQ
# B3: Gluconobacter oxydans alcohol dehydrogenase goxADH (Gox0313), SEQ ID NO: 206 (Gluconobacter oxydans 621H) (protein)
# chain: MADTMLAAVVREFGKPLSIERLPIPDIKPHQILVKVDTCGVCHTDLHAARGDWPSKPNPPFIPGHEGVGHIVAVGSQVGDFVKTGDVVGVPWLYSACGHCEHCLGGWETLCEKQDDTGYTVNGCFAEYVVADPNYVAHLPSTIDPLQASPVLCAGLTVYKGLKMTEARPGQWVAVSGVGGLGQMAVQYAVAMGMNVVAVDIDDEKLATAKKLGASLTVNAKDTDPARFIQQQIGGAHGALVTAVGRTAFSQAMGYARRGGTIVLNGLPPGDFPVSIFDMVMNGTTIRGSIVGTRLDMIEAMDFFARGKVKSVVTPGKLENINTIFDDLQNGRLEGRTVLDFRS
# How the values were obtained:
# [1] = biological target: T1, Pseudomonas putida aldehyde dehydrogenase ppuALDH, SEQ ID NO: 267; test: Aldehyde dehydrogenase (glycolaldehyde to glycolic acid) kinetics, ppuALDH; type: biochemical
# Description: (§1) Enzyme expression and purification: The enzymes of interest were genetically engineered in the E. coli BL21 (DE3) strain on a high copy plasmid under control of the T7 promoter. The enzymes were tagged with a hexahistidine (His-tag) sequence to facilitate for purification. Post-expression, the His-tagged enzymes were selectively bound to a nickel-charged immobilized metal affinity chromatography (IMAC) resin, exploiting the high affinity between histidine residues and nickel ions. Upon washing away non-specifically bound proteins, the His-tagged enzymes were eluted with an imidazole-containing buffer and subsequently used for enzymatic assays.
# Enzyme assays: Standard enzyme characterization protocols were performed to determine the activities of the enzymes. Dehydrogenase activity against the substrates was determined using a continuous assay following the increase in absorbance at 340 nm ε340 (NADH)=6.22 mM^−1. cm^−1, and ε340 (NADPH)=6.2 mM^−1·cm^−1]. Substrate screens were performed at 30 °C in a reaction mixture (200 μL) containing 50 mM of substrate in 100 mM Tris-HCl (pH 8.5), 1 mM NAD^+, 1 mM substrate, and 10 μg of purified protein. […]
# A second enzymatic step in the processes described herein relate to the conversion of an aliphatic polyhydric aldehyde substrate (e.g., glycolaldehyde) to a corresponding alpha-hydroxy acid (e.g., glycolic acid). […] In order to identify potentially higher-performing enzymes for industrial use capable of converting glycolaldehyde to glycolic acid, we evaluated a plurality of candidates based on either close, medium, or distant phylogeny to ecoALDH (SEQ ID NO: 265). A subset of candidate enzymes were cloned, expressed, and purified, along with ecoALDH as a control, as described in Example 8.1, and their in vitro enzymatic activities were measured in a reaction mixture consisting of 50 mM glycolaldehyde in 100 mM Tris-HCl buffer (pH 8.5). The reaction was initiated by the addition of the purified enzyme, and activity was measured by monitoring the formation of glycolic acid over time. […]
# [2] = tested on: Gluconobacter oxydans zinc-dependent medium-chain alcohol dehydrogenase Gox0313, SEQ ID NO: 206; conditions: role: substrate, Zhang et al., 2015, cited from earlier work
# [3] = biological target: T2, Azotobacter vinelandii aldehyde dehydrogenase aviALDH, SEQ ID NO: 266; test: Aldehyde dehydrogenase (glycolaldehyde to glycolic acid) kinetics, aviALDH; type: biochemical
# Description: as §1
# Enzyme assays: Standard enzyme characterization protocols were performed to determine the activities of the enzymes. Dehydrogenase activity against the substrates was determined using a continuous assay following the increase in absorbance at 340 nm ε340 (NADH)=6.22 mM^−1. cm^−1, and ε340 (NADPH)=6.2 mM^−1·cm^−1]. Substrate screens were performed at 30 °C in a reaction mixture (200 μL) containing 50 mM of substrate in 100 mM Tris-HCl (pH 8.5), 1 mM NAD^+, 1 mM substrate, and 10 μg of purified protein. Initial velocity patterns of the enzymatic reaction were obtained by varying the concentrations of ethylene glycol at fixed concentrations of enzyme concentration in the presence of the saturating NAD concentrations.
# A second enzymatic step in the processes described herein relate to the conversion of an aliphatic polyhydric aldehyde substrate (e.g., glycolaldehyde) to a corresponding alpha-hydroxy acid (e.g., glycolic acid). E. coli aldehyde dehydrogenase aldA (ecoALDH) has been reported to catalyze the intracellular enzymatic conversion of glycolaldehyde (GA) to glycolic acid (e.g., Wada et al. 2005; Morishige et al., 2007; Pandit et al., 2019; Pandit et al., 2021). In order to identify potentially higher-performing enzymes for industrial use capable of converting glycolaldehyde to glycolic acid, we evaluated a plurality of candidates based on either close, medium, or distant phylogeny to ecoALDH (SEQ ID NO: 265). A subset of candidate enzymes were cloned, expressed, and purified, along with ecoALDH as a control, as described in Example 8.1, and their in vitro enzymatic activities were measured in a reaction mixture consisting of 50 mM glycolaldehyde in 100 mM Tris-HCl buffer (pH 8.5). The reaction was initiated by the addition of the purified enzyme, and activity was measured by monitoring the formation of glycolic acid over time. […]
# [4] = biological target: T3, Escherichia coli aldehyde dehydrogenase ecoALDH (aldA), SEQ ID NO: 265; test: Aldehyde dehydrogenase (glycolaldehyde to glycolic acid) kinetics, ecoALDH; type: biochemical
# Description: as §1
# (§2) Enzyme assays: Standard enzyme characterization protocols were performed to determine the activities of the enzymes. Dehydrogenase activity against the substrates was determined using a continuous assay following the increase in absorbance at 340 nm ε340 (NADH)=6.22 mM^−1. cm^−1, and ε340 (NADPH)=6.2 mM^−1·cm^−1]. […]
# A second enzymatic step in the processes described herein relate to the conversion of an aliphatic polyhydric aldehyde substrate (e.g., glycolaldehyde) to a corresponding alpha-hydroxy acid (e.g., glycolic acid). […] The reaction was initiated by the addition of the purified enzyme, and activity was measured by monitoring the formation of glycolic acid over time. […]
# [5] = substrate: OCCO; test: Alcohol dehydrogenase (EG oxidation) Michaelis-Menten kinetics, gmoADH; type: biochemical, Gluconobacter morbifer; conditions: other: role: substrate, 100 mM Tris-HCl pH 8.5, 30 °C, saturating NAD, EG 1-100 mM
# Description: as §1, §2
# (§3) The candidate alcohol dehydrogenase enzymes were next characterized for their enzymatic activity. […] Reactions were initiated by the addition of the purified enzyme and enzymatic activity was measured by monitoring the formation of the product (glycolaldehyde) over time as described in Example 8.1. […]
# [6] = substrate: OCCO; test: Alcohol dehydrogenase (EG oxidation) Michaelis-Menten kinetics, gdiADH; type: biochemical, Gluconobacter diazotrophicus; conditions: other: role: substrate, 100 mM Tris-HCl pH 8.5, 30 °C, saturating NAD, EG 1-100 mM
# Description: as §1, §2, §3
# [7] = substrate: OCCO; test: Alcohol dehydrogenase (EG oxidation) Michaelis-Menten kinetics, goxADH; type: biochemical, Gluconobacter oxydans; conditions: other: role: substrate, 100 mM Tris-HCl pH 8.5, 30 °C, saturating NAD, EG 1-100 mM
# Description: as §1, §2, §3
# [8] = role: inhibitor, substrate inhibition, relative to ecoALDH
# [9] = role: substrate, relative to ecoALDH
# [10] = role: substrate, versus ecoALDH
molecule,measurement,setting,value
O=CCO [glycolaldehyde],Relative KI,[1]; [8],1.3
same,Relative kcat,[1]; [9],5.8
same,"catalytic turnover rate, fold higher than ecoALDH",[1]; [10],5.8 fold
same,turnover and catalytic efficiency for glycolaldehyde as a substrate,[2]; compared to ethylene glycol,higher turnover and catalytic efficiency
same,affinity and catalytic rate for glycolaldehyde reduction to ethylene glycol,[2]; compared to the oxidation of ethylene glycol,higher affinity and catalytic rate
same,"resistance to substrate inhibition, fold higher than ecoALDH","[3]; role: inhibitor, glycolaldehyde substrate inhibition, versus ecoALDH",5.6 fold
same,Relative KI,[3]; [8],5.6
same,Relative kcat,[3]; [9],5.3
same,"catalytic turnover rate, fold higher than ecoALDH",[3]; [10],5.3 fold
same,Relative KI,"[4]; role: inhibitor, substrate inhibition",1.0
same,Relative kcat,[4]; role: substrate,1.0
B1,Km,[5],200 ± 44 μM EG
same,Vmax,[5],4.9 ± 0.8 µmol/min/mg
B2,Km,[6],230 ± 87 μM EG
same,Vmax,[6],7.5 ± 2.1 µmol/min/mg
B3,Vmax,[7],2.0 ± 0.1 µmol/min/mg
